Like-named read-outs stand apart in the source and are kept apart here.
What was measured:
[1] = Solubility study of calcitriol in the formulations (light microscopy); assay type: physicochemical; conditions: each formulation of Table 3; prepared at 50° C., cooled to room temperature; highest concentration tested
Method: To further assess the formulations of calcitriol, a solubility study was conducted to evaluate the amount of calcitriol soluble in each formulation. Calcitriol concentrations from 0.1 to 0.6 μg calcitriol/mg fomulation were prepared by heating the formulations to 50° C. followed by addition of the appropriate mass of calcitriol. The formulations were then allowed to cool to room temperature and the presence of undissolved calcitriol was determined by a light microscope with and without polarizing light. For each formulation, calcitriol was soluble at the highest concentration tested, 0.6 μg calcitriol/mg formulation.

patients = conditions: administered doses; Glover 1988; cited from earlier work
cancer patients [2] = conditions: cited from earlier work
[3] = tested on: patients with androgen independent prostate cancer; conditions: Taxotere 36 mg/m^2 weekly, calcitriol 45 μg weekly by HDPA
Excerpt: Two hundred fifty patients with androgen independent prostate cancer were enrolled in a randomized placebo controlled trial at 48 centers in the United States and Canada. All patients in the study received chemotherapy treatment with weekly Taxotere®, a drug in the taxoid class of chemotherapeutic agents. […] Oral dexamethasone was also given along with the Taxotere® to minimize certain side effects (allergic reactions and fluid retention) associated with Taxotere®.
In addition to Taxotere® and dexamethasone, half of the patients were randomly treated with calcitriol and the other half received a placebo. Calcitriol was administered as three capsules of 15 μg each once a week on the day prior to chemotherapy. […] The same Taxotere® dose of 36 mg/m^2 body surface area was administered to the patients receiving Taxotere® and placebo or Taxotere® in combination with calcitriol. Drugs were administered for three weeks out of a four week cycle, with calcitriol being administered on days 1, 7, and 21 and Taxotere® being administered on days 2, 8, and 22.

cancer patients [4] = conditions: cited from earlier work; for Patients who developed pneumonia: refractory chronic lymphocytic leukemia
[5] = in vivo; cited from earlier work
[6] = acute promyelocytic leukemia, Tallman 1997

Which “Calcitriol soluble in formulation” value [1] does the source give for `C=C1/C(=C\C=C2/CCC[C@]3(C)[C@@H]([C@H](C)CCCC(C)(C)O)CC[C@@H]23)C[C@@H](O)C[C@@H]1O` [calcitriol, 1α,25-hydroxyvitamin D3] here?
The value was ≥ 0.6 μg calcitriol/mg formulation.

For `NCCCNCCSP(=O)(O)O` [WR 2721, S-2-(3-aminopropylamino)ethylphosphorothioic acid], which Patients with emesis (patients) is on record?
Its Patients with emesis is 48%.

And the Patients with hypotension (patients)?
The Patients with hypotension was 7%.

For `CC1=C(/C=C/C(C)=C/C=C/C(C)=C/C(=O)O)C(C)(C)CCC1` [all-trans-retinoic acid], which “Patients who developed grade III or IV pulmonary toxicity (total)” value (cancer patients [2]; [6]) is on record?
The value was “Twenty”.

And the “Patients with lethal pulmonary toxicity” value (cancer patients [2]; [6])?
Its value is 2%.

And the “Patients with life-threatening pulmonary toxicity” value (cancer patients [2]; [6])?
The value was 11%.

And the “Patients with severe pulmonary toxicity” value (cancer patients [2]; [6])?
Its value is 7%.

With `CC(=O)O[C@@]12CO[C@@H]1C[C@H](O)[C@@]1(C)C(=O)[C@H](O)C3=C(C)[C@@H](OC(=O)[C@H](O)[C@@H](NC(=O)OC(C)(C)C)c4ccccc4)C[C@@](O)([C@@H](OC(=O)c4ccccc4)[C@H]21)C3(C)C` [Taxotere®] as the compound, how does the “Patients hospitalized for dyspnea” value [3] read?
Its value is “four”.

What about the “Patients who developed ARDS” value [3] of the same compound?
The value was “One”.

What does the source list for `Nc1nc(F)nc2c1ncn2[C@@H]1O[C@H](COP(=O)(O)O)[C@@H](O)[C@@H]1O` [fludarabine phosphate]?
Patients who developed pneumonia (cancer patients [4]; 15-25 mg/m^2 daily for five days every 28 days): 22%; Patients who developed pneumonia (cancer patients [4]; 22-40 mg/m^2 daily for five days every 28 days): 16%

Which “Patients with grade III-IV respiratory toxicity” value (cancer patients [2]; out of 40 bladder cancer patients, 1200 mg/m^2 IV weekly times three on a 4-week cycle, Stadler 1997) does the source give for `Nc1ccn([C@@H]2O[C@H](CO)[C@@H](O)C2(F)F)c(=O)n1` [gemcitabine] here?
Its value is 2 patients.

With “gemtuzumab: cancer drug given to acute myelogenous patients; product Mylotarg™, Wyeth-Ayerst” as the compound, how does the “Patients with grade III or IV pneumonia” value (cancer patients [4]; acute myelogenous patients, 9 mg/m^2 IV over 2 hours, two doses 14 days apart, Mylotarg package insert) read?
Its value is 7%.

Which “Hypercalcemic effect, in words” value [5] does the source give for `C=C1/C(=C\C=C2/CCC[C@]3(C)C([C@H](C)CC#CC(C)(C)O)=CC[C@@H]23)C[C@@H](O)C[C@@H]1O` [Ro23-7553] here?
Its value is “reduced hypercalcemic effect”.
